Data from patent US10952992B2, “Methods of treating intraocular pressure with activators of Tie-2” (Aerpio Pharmaceuticals, Inc., priority 2015, dated 2021).

Test system: intraocular pressure, study eye/fellow eye
Test: Intraocular pressure with Compound 1 + sham, Compound 1 + RBZ or placebo + RBZ, months 1-3 (FIG. 2, TABLE 1)
Assay type: in vivo, human
Procedure: The difference in IOP was determined relative to a pre-treatment baseline (Base) at months 1, 2, and 3 (M1-M3). Intraocular pressure was determined in the study eye in millimeters of mercury (mmHg). […] The difference in IOP was determined relative to a pre-treatment Baseline at Months 1, 2, and 3. Intraocular pressure was determined in the study eye/fellow eye in mmHg.

“placebo + RBZ: a placebo combined with RBZ (ranibizumab)” was tested, and the “IOP, fellow eye” value (Baseline (pre-treatment)) was 15.8 mmHg, the “IOP, study eye” value (Baseline (pre-treatment)) was 15.2 mmHg and the “IOP, fellow eye” value (Month 1) was 15.5 mmHg. The “IOP, study eye” value (Month 1) was 15.0 mmHg, the “IOP, fellow eye” value (Month 2) was 15.5 mmHg and the “IOP, study eye” value (Month 2) was 15.0 mmHg. The “IOP, fellow eye” value (Month 3) was 15.7 mmHg and the “IOP, study eye” value (Month 3) was 15.3 mmHg.
